Reference: publication PMC7473865, “Repertoire-scale determination of class II MHC peptide binding via yeast display improves antigen prediction” (Nature Communications, 2020)
Where two headings read alike, the source gives them in different places. Ends that are not written are not given here.

What was measured:
Assay type in all cases: binding
[1] = target: T1, recombinant HLA-DR402 (HLA-DRA1*01:01, HLA-DRB1*04:02) (Homo sapiens, UniProt P01903+P01911, A100E/A169T/F76Y/K127E/L162R/M171V/N62H/P40V/Q125Y/Q99D/R42H/S133A/S149N/S66Y/V209L/W38E); test: biochemical
T1 construct: poly-histidine (C); made in house; host or cells: High Five (Hi5) insect cells, baculovirus (pAcGP67a)

[2] = target: yeast-displayed HLA-DR401 (Homo sapiens, UniProt P01903+P01911, A100K/A169T/D72E/F76Y/I96L/K127E/L162R/M171V/M61L/P40V/Q125Y/R42H/S133A/S149N/S66Y/V115G/V157M/V209L/W38E); test: Yeast-display randomized peptide library selection and deep sequencing, HLA-DR401; parameters: key: 1=binder; 0=non-binder
[3] = target: T2, recombinant HLA-DR401 (HLA-DRA1*01:01, HLA-DRB1*04:01) (Homo sapiens, UniProt P01903+P01911, A100K/A169T/F76Y/I96L/K127E/L162R/M171V/N62H/P40V/Q125Y/R42H/S133A/S149N/S66Y/V115G/V209L/W38E); test: biochemical
T2 construct: poly-histidine (C); made in house; host or cells: High Five (Hi5) insect cells, baculovirus (pAcGP67a)

[4] = HLA-DR402, estimated from two-point fluorescence polarization competition, Fig5F, read-out: Estimated IC50
[5] = SuppFig8C, yeast-display library peptides

Row | Compound | IC50 [1, 4] [nM] | IC50 [1] [nM] | other results
1 | CC[C@H](C)[C@H](NC(=O)[C@@H]1CCCN1C(=O)[C@H](Cc1ccc(O)cc1)NC(=O)[C@H](CCCCN)NC(=O)[C@H](CCSC)NC(=O)[C@H](C)NC(=O)[C@H](CCSC)NC(=O)[C@H](CCSC)NC(=O)[C@H](Cc1c[nH]c2ccccc12)NC(=O)[C@H](CCCCN)NC(=O)[C@H](CCSC)NC(=O)[C@H](CCCNC(=N)N)NC(=O)[C@H](CC(C)C)NC(=O)[C@H](C)NC(=O)[C@@H]1CCCN1)C(=O)O | 1310 | – | –
2 | CC[C@H](C)[C@H](NC(=O)[C@H](CCC(=O)O)NC(=O)[C@@H](N)[C@@H](C)O)C(=O)N[C@H](C(=O)N[C@@H](CCCNC(=N)N)C(=O)N[C@@H](CCSC)C(=O)N[C@@H](CCSC)C(=O)N[C@@H](CCC(=O)O)C(=O)N[C@@H](CO)C(=O)N[C@@H](C)C(=O)N[C@@H](CCCNC(=N)N)C(=O)N1CCC[C@H]1C(=O)N[C@@H](CCC(=O)O)C(=O)N[C@@H](CC(=O)O)C(=O)N[C@H](C(=O)O)C(C)C)[C@@H](C)CC | 83.1 | – | –
3 | CC[C@H](C)[C@H](NC(=O)[C@H](C)NC(=O)[C@@H](NC(=O)[C@H](C)NC(=O)[C@H](CCCNC(=N)N)NC(=O)[C@H](CCCNC(=N)N)NC(=O)CNC(=O)[C@@H](NC(=O)[C@H](CCSC)NC(=O)[C@@H](NC(=O)[C@H](Cc1ccccc1)NC(=O)[C@H](CCC(=O)O)NC(=O)[C@H](CCC(=O)O)NC(=O)[C@@H](N)Cc1ccc(O)cc1)[C@@H](C)O)C(C)C)[C@@H](C)O)C(=O)N[C@@H](CC(C)C)C(=O)O | 4570 | – | –
4 | CC[C@H](C)[C@H](NC(=O)CNC(=O)[C@H](CCCNC(=N)N)NC(=O)[C@H](CCCCN)NC(=O)[C@@H](NC(=O)[C@H](CCSC)NC(=O)[C@H](CCCNC(=N)N)NC(=O)[C@@H](NC(=O)[C@H](CC(C)C)NC(=O)[C@H](CCC(=O)O)NC(=O)[C@H](CCSC)NC(=O)[C@@H](NC(=O)[C@H](CCSC)NC(=O)[C@@H](N)[C@@H](C)O)C(C)C)C(C)C)[C@@H](C)CC)C(=O)N[C@@H](CC(N)=O)C(=O)O [TMVMELVRMIKRGIN] | 870 | – | –
5 | AAACRKRTWLGWEEG | < 10 | – | IC50 ([1]; read-out: IC50): < 10 nM
6 | AAADARCSNRSDLMGGSGGG | – | – | label (1=binder, 0=non-binder) ([2]; Fig6B data set): 0; label (1=binder, 0=non-binder) [2, 5]: 0
7 | AAAKYRLHVKSGWSGGSGGG | – | – | label (1=binder, 0=non-binder) ([2]; Fig6B data set): 0
8 | AAALSTSWLFCSRCGGSGGG | – | – | label (1=binder, 0=non-binder) ([2]; Fig6B data set): 0; label (1=binder, 0=non-binder) [2, 5]: 0
9 | AAAMQRRNPALLLFGGSGGG | – | – | label (1=binder, 0=non-binder) ([2]; Fig6B data set): 0; label (1=binder, 0=non-binder) [2, 5]: 0
10 | AAANRRPSLLGWEEG | < 10 | – | IC50 ([1]; read-out: IC50): < 10 nM
11 | AAANWSSSPDMPLVGGSGGG | – | – | label (1=binder, 0=non-binder) ([2]; Fig6B data set): 0; label (1=binder, 0=non-binder) [2, 5]: 0
12 | AAARGALTTQLLAIGGSGGG | – | – | label (1=binder, 0=non-binder) [2, 5]: 0
13 | AACRKHGSSIGWEEG | – | 132 | –
14 | AAEHVWPSLVGWEEG | – | 25.6 | –
15 | AAGRSHRTHEGWEEG | – | 10 | –
16 | AALDAHRDHMAWEEG | < 10 | – | IC50 ([1]; read-out: IC50): < 10 nM

Row | Compound | IC50 [1, 4] [nM] | IC50 [1] [nM] | other results
17 | AALTGKLGHRGWEEG | < 10 | – | IC50 ([1]; read-out: IC50): < 10 nM
18 | AALWRHPGHVGWEEG | – | 74.9 | –
19 | AAPRRHANHLGWEEG | – | 130 | –
20 | AAQVDWPTLPMWEEG | – | 63.6 | –
21 | AATERRPTLMAWEEG | < 10 | – | IC50 ([1]; read-out: IC50): < 10 nM
22 | AAVREKCDHVGWEEG | – | 75.5 | –
23 | AAVSDRLPLRGWEEG | < 10 | – | IC50 ([1]; read-out: IC50): < 10 nM
24 | AAVTEEKSHLGWEEG | – | 58.3 | –
25 | AAVTERPINLGWEEG | – | 51.3 | –
26 | AAVTNWGCEVGWEEG | – | 136 | –
27 | AQKIVEWDSRKSKYG | – | 62 | –
28 | ASKIAFKIVSQEPAG | – | 27.8 | –
29 | ASKMRMATPLLMQAG | < 10 | – | IC50 [3]: 5170 nM
30 | LGFVFTLTVPSERGL | 409 | – | –
31 | NRMVLASTTAKAMEQ | < 10 | – | IC50 ([1]; read-out: IC50): < 10 nM
